Consider 1 substance from patent publication US9161944B2, “Method for preventing cancer metastasis” (INSERM (INSTITUT NATIONAL DE LA SANTE ET DE LA SANTE ET DE …, priority 2010, dated 2015).

The subject of one series is MDA-MB-435s (SK3+). In words: Cell migration / 2D motility assay (transwell inserts, wound healing). The format is cell-based, human. An excerpt: Alternatively, the cell migration inhibitory activity of a compound of formula (I) may be assessed by performing a Wound Healing assay that is disclosed in the examples herein and for which the one skilled in the art may also refer to the article of Rodriguez et al. (2005, Methods Biol Mol, Vol. 294: 23-29). The wound-healing assay is simple, inexpensive, and one of the earliest developed methods to study directional cell migration in vitro. This method mimics cell migration during wound healing in vivo. The basic steps involve creating a “wound” in a cell monolayer, capturing the images at the beginning and at regular intervals during cell migration to close the wound, and comparing the images to quantify the migration rate of the cells. It is particularly suitable for studies on the effects of cell-matrix and cell-cell interactions on cell migration. Cells are seeded in culture dishes and grown until confluence in DMEM supplemented with 10% foetal calf serum. The monolayer is then scratched with a sterile yellow pipette tip. Then, migration of cells to the cleared area is inspected under a microscope. Pictures are taken directly at the time of scratching and after 24 h, so as to determine the ability of the tested cells to migrate.
Wound healing assay: Cells were seeded in culture dishes and grown until confluence in DMEM supplemented with 10% foetal calf serum. The monolayer was scratched with a sterile yellow pipette tip. The migration of cells to the cleared area was inspected under a microscope. Pictures were taken directly at the time of scratching and after 24 h.
(§1) At least three independent experiments were each performed in triplicate.

The next series concerns the target T1, SK2 (Homo sapiens, UniProt Q9H2S1).
T1 construct: expressed in transfected cells; host or cells: HEK293
As to the kind of experiment: Whole-cell K+ currents in HEK293 cells expressing recombinant SK2. As to conditions: 10 μM, FIG. 9B. The format is cell-based. As for the experimental part:
(§2) FIG. 9. Selectivity effect of JPH1701 on SKCa subtype and on IKCa channels. FIG. 9A) Example of whole-cell K^+ currents recorded in HEK293 cells expressing recombinants SK1, SK2, SK3 and IKCa channels before and after application of 10 μM JPH1701 (upper graphs: SK1 and SK2 respectively, bottom graphs: SK3 and IKCa respectively). Currents were generated by ramp protocol from −100 mV to +60 mV in 500 ms from a constant holding of 0 mV and with a pCa 6. FIG. 9B) Histograms showing the effect of 10 μM JPH1701 on SKCa (SK1, SK2, SK3) and IKCa current amplitudes recorded at 0 mV. […] For each channel (SK1, SK2, SK3 and IKCa) the left column (pale grey) represents the control result and the right column (dark grey) represents the result after JPH1701 application.
(§3) The selectivity of JPH1701 toward the others members of the SKCa/IKCa channels was tested. […] The experimental protocol was similar to the one used in FIG. 8. JPH1701 was tested for membrane potential from +60 mV to −100 mV on 500 msec.

In another series the test system is MDA-MB-435s. As to the kind of experiment: Cytotoxicity / cell viability (MTT, tetrazolium salt reduction).
The next series deals with T2, IKCa (Homo sapiens, UniProt O15554).
T2 construct: expressed in transfected cells; host or cells: HEK293
In words: Whole-cell K+ currents in HEK293 cells expressing recombinant IKCa. The format is cell-based. Particulars: 10 μM, FIG. 9B. As for the experimental part:
as §2, §3

Another series addresses PhosphoLipase C (PLC). In words: PhosphoLipase C activity. Format: biochemical. Particulars: FIG. 11D. How it is done: FIG. 11: Effects of JPH1701 on PAF receptor, PLC and PKCs activities. FIG. 11A) Histogram showing the percentage of control specific binding of 3H-C16-PAF to recombinant PAF receptor obtained from membrane homogenates of CHO cells by 0.3 and 2 μM edelfosine and by 0.3 and 2 μM JPH1701. FIG. 11B) Histogram showing the percentage of control agonist response (% effect i.e: increase of intracellular calcium concentration) of 0.3 and 2 μM edelfosine and JPH1701 on PAF receptor normalized to the response induced by 100 nM C16-PAF. […] FIG. 11C-D) Dose responses curves showing the effect of JPH1701 on PKCs (FIG. 11C, PKCs are: alpha, Beta 1, Beta 2, Gamma, Delta, Epsilon, Zeta, Eta, Theta, Iota) and PhosphoLipase C (PLC) activities (FIG. 11D).

The test system of another series is MDA-MB-435s shSK3. In words: Transwell motility of cells not expressing SK3. The format is cell-based, human. Particulars: 10 nM to 300 nM; non-specific effect at 1 μM, FIG. 6F. How it is done: (§4) FIG. 6: JPH1701 (or Ohmline) activity on cell motility on cancerous MDA-MB-435s cells and on non cancerous MCF-10A cells. The motility was tested by transwell assay. Additionally, viability tests were performed using MTT assays. FIG. 6A-B) JPH1701 (the concentrations of JPH1701, for the FIG. 6A, are 0 (control condition), 10 nM, 100 nM, 300 nM and 1 μM) reduces motility (FIG. 6A) of MDA-MB-435s wild type (WT) cells from 10 nM without affecting viability (FIG. 6B) except at 10 μM. FIG. 6C-D) MCF-10A motility (FIG. 6C) and viability (FIG. 6D) are not affected by JPH1701 (the concentrations of JPH1701, for the FIG. 6C, are 0 (control condition), 10 nM, 100 nM, 300 nM and 1 μM). FIG. 6E-F) Effect on SK3 dependent motility.
MDA-MB-435s and HEK293 cells were transduced with lentiviral vector at multiplicities of infection (MOI) of 1 to 3 in the presence of polybrene (4 μg/ml, Sigma). The transduction rate for MDA-MB-435s determined by counting GFP cells was close to 90%. In order to selection one clone of HEK293-SK3/KCa2.3 limit dilution were realized and each clone was tested in patch clamp with apamin and edelfosine and by western blotting in order to control expression of SK3/KCa2.3 channel.
as §1

The target of the next series is T3, SK1 (Homo sapiens, UniProt Q92952).
T3 construct: expressed in transfected cells; host or cells: HEK293
In words: Whole-cell K+ currents in HEK293 cells expressing recombinant SK1. Format: cell-based. As to conditions: 10 μM, FIG. 9B. As for the experimental part:
as §2, §3

For the next series, the system named is MCF-10A. In words: Transwell motility of non cancerous cells. The format is cell-based, human. As to conditions: 10 nM to 1 μM, FIG. 6C. As for the experimental part: as §4
The immortalized normal mammary epithelial cell lines MCF-10A and 184A1 were cultured in DMEM/Ham's F-12, 1:1 mix containing 5% horse serum (Invitrogen Life Technologies, France), insulin (10 μg/ml), epidermal growth factor (20 ng/ml), hydrocortisone (0.5 μg/ml) and, respectively for MCF-10A and 184A1, 100 ng/ml cholera toxin and 1 ng/ml cholera toxin plus 5 μg/ml transferrin.

T2 sequence (O15554 whole entry): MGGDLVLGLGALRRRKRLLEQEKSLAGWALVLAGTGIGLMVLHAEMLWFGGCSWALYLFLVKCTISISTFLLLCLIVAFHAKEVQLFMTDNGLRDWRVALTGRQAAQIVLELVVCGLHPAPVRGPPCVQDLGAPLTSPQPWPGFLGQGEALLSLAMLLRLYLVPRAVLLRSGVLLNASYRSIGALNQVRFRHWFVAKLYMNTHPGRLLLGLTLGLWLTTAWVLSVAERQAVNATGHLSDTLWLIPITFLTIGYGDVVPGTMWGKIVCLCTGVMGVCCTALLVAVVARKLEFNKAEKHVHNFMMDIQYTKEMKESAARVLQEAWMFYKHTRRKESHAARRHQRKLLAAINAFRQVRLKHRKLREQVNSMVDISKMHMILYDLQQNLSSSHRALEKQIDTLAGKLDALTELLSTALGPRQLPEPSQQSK
T1 sequence (Q9H2S1 whole entry): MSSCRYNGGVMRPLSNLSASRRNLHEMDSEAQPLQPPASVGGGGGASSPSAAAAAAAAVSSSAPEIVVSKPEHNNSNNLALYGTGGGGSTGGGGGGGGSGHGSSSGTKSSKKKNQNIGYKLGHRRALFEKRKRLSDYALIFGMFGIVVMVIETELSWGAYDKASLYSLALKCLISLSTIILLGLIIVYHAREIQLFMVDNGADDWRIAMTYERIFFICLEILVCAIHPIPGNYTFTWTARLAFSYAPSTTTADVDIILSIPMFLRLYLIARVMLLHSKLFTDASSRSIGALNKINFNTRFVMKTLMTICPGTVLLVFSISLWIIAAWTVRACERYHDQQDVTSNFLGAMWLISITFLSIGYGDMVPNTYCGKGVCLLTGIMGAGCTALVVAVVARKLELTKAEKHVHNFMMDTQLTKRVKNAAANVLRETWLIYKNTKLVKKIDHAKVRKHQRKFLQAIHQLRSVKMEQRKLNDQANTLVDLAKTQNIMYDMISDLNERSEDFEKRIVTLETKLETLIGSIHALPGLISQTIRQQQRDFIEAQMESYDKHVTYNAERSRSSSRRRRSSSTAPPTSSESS
T3 sequence (Q92952 whole entry): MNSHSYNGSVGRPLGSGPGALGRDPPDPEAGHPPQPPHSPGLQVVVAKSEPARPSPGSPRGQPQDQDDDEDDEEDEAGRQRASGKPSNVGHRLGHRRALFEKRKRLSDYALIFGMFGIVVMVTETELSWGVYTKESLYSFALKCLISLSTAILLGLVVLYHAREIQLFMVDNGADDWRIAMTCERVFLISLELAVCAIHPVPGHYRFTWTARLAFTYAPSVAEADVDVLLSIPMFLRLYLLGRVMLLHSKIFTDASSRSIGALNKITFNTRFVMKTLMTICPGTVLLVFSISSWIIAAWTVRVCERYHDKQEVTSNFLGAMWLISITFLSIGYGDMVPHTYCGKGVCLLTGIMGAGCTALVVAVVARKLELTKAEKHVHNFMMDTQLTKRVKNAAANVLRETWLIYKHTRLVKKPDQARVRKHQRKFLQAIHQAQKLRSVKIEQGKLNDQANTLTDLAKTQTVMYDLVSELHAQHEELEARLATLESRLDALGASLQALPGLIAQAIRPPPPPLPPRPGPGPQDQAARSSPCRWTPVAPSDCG

As for “hexadecyloxy-2-O-methyl-sn-glycerol-lactose [JPH1701]”, in the series on MDA-MB-435s (SK3+) (MDA-MB-435s shRD, FIG. 6E), the “Effect on motility of cells with shRNA random (SK3+) compared with wild type” value is on record as “same inhibition effect”. In the series with MDA-MB-435s (SK3+) (MDA-MB-435s wild type, FIG. 6A), the “Concentration from which cell migration is inhibited” value is recorded as at least 10 nM. In addition, the “Concentration of maximal effect on cell migration” value with MDA-MB-435s (SK3+) (MDA-MB-435s wild type, FIG. 6A) is recorded as “around 1 μM”. Also, the “Cell Migration inhibition of MDA-MB-435s (SK3+), Inhibitory effect” value in the series with MDA-MB-435s (SK3+) (Table 1, concentration 300 nM) was found to be 50%. Moreover, the “Migration (% of inhibition)” value with MDA-MB-435s (SK3+) (Table 2, concentration 300 nM) was 50%. In the series with MDA-MB-435s (SK3+) (summary of table 2), the “Effect on cell migration” value is given as “even more effective”. The “Effect on SK2 channels” value on SK2 is “inactive”. Further, the Toxicity entry in the series with MDA-MB-435s (Table 2, viability of MDA-MB-435s) was “No at 10 μM”. The “Effect on cell viability” value in the series on MDA-MB-435s (at 10 nM to 1 μM, FIG. 6B) is reported as “no effect on cell viability”. For the same substance, the “Effect on MDA-MB-435s proliferation” value with MDA-MB-435s (in vitro) is listed as “no effect”. Moreover, the IC50 (as a rule, the concentration that inhibits the measured activity by half) is above 10 µM in the series on MDA-MB-435s (read-out: Cytotoxicity IC50, Table 1) and 7 µM against PhosphoLipase C (PLC). On IKCa, the “Effect on IKCa currents” value was “inactive”. Moreover, the “Effect on migration ability of cells not expressing SK3” value in the series on MDA-MB-435s shSK3 is recorded as “does not affect”. Further, the “Effect on SK1 current amplitude at 0 mV” value on SK1 is “significantly reduced”. Besides, the “Effect on cell migration of non-cancerous cells” value in the series on MCF-10A is given as “did not affected”.
